Columns and labels:
[1] = test system: peach aphids (Myzus persicae); assay: Myzus test (cabbage leaf dip); type: in vivo; settings: cabbage leaves dipped
Description: Myzus test Solvent: 7 parts by weight of dimethylformamide Emulsifier: 1 part by weight of alkylaryl polyglycol ether To produce a suitable preparation of active compound, 1 part by weight of active compound is mixed with the stated amounts of solvent and emulsifier, and the concentrate is diluted with emulsifier-containing water to the desired concentration. Cabbage leaves (Brassica oleracea) which are heavily infested by peach aphids (Myzus persicae) are treated by being dipped into the preparation of active compound of the desired concentration. After the desired period of time, the kill in % is determined. 100% means that all aphids have been killed; 0% means that none of the aphids have been killed.

[2] = test system: larvae of the mustard beetle (Phaedon cochleariae); assay: Phaedon larvae test (cabbage leaf dip); type: in vivo; settings: 100 ppm active compound, cabbage leaves dipped
Description: Phaedon larvae test Solvent: 7 parts by weight of dimethylformamide Emulsifier: 1 part by weight of alkylaryl polyglycol ether To produce a suitable preparation of active compound, 1 part by weight of active compound is mixed with the stated amounts of solvent and emulsifier, and the concentrate is diluted with emulsifier-containing water to the desired concentration. Cabbage leaves (Brassica oleracea) are treated by being dipped into the preparation of active compound of the desired concentration and are populated with larvae of the mustard beetle (Phaedon cochleariae) while the leaves are still moist. After the desired period of time, the kill in % is determined. 100% means that all beetle larvae have been killed; 0% means that none of the beetle larvae have been killed.

[3] = test system: Meloidogyne incognita; assay: Meloidogyne test (gall formation on lettuce roots); type: in vivo; settings: 20 ppm active compound, nematicidal action by gall formation on lettuce
Description: Meloidogyne test Solvent: 7 parts by weight of dimethylformamide Emulsifier. 1 part by weight of alkylaryl polyglycol ether To produce a suitable preparation of active compound, 1 part by weight of active compound is mixed with the stated amounts of solvent and emulsifier, and the concentrate is diluted with water to the desired concentration. Vessels are filled with sand, solution of active compound, Meloidogyne incognita egg/larvae suspension and lettuce seeds. The lettuce seeds germinate and the plants develop. On the roots, galls develop. After the desired period of time, the nematicidal action is determined in % by the formation of galls. 100% means that no galls have been found; 0% means that the number of galls on the treated plants corresponds to that of the untreated control.

[4] = test system: Myzus persicae; assay: Critical concentration test/root-systemic action; type: in vivo; settings: 1.25 ppm in soil; root-systemic, broad beans; populated after 7 days, evaluated after a further 8 days
Description: Critical concentration test/root-systemic action Test insect: Myzus persicae Solvent: 4 parts by weight of acetone Emulsifier: 1 part by weight of alkylaryl polyglycol ether To produce a suitable preparation of active compound, 1 part by weight of active compound is mixed with the stated amount of solvent, the stated amount of emulsifier is added and the concentrate is diluted with water to the desired concentration. The preparation of active compound is mixed intimately with the soil. The concentration of the active compound in the preparation is virtually immaterial, only the amount by weight of active compound per volume unit of soil, which is stated in ppm […], being decisive. The treated soil is filled into 250 ml pots and pregerminated broad beans are planted in these. Thus, the active compound can be taken up by the plant roots from the soil and then transported into the leaves. To assess the root-systemic effect, the plants are populated with the above-mentioned test animals after 7 days. After a further 8 days, evaluation is carried out by counting or estimating the number of dead animals. The root-systemic action of the active compound is derived from the number of animals killed. It is 100% if all test animals have been killed and 0% when the number of test insects that are still alive is the same as for the untreated control.

| SMILES | Kill rate in % after 6 d ([1]; 1000 ppm active compound) [%] | melting point [°C] | other results |
| --- | --- | --- | --- |
| CCOC(=O)OC1=C(c2c(C)cc(C)cc2C)C(=O)NC12CCC(C(F)(F)F)CC2 (stereo not shown) [Example I-1-c-1] | 100 |  |  |
| Cc1cc(Cl)cc(C)c1C1=C(O)C2(CCC(C(F)(F)F)CC2)NC1=O (stereo not shown) [Example I-1-a-6] |  | > 248 |  |
| Cc1ccc(C)c(C2=C(O)C3(CCC(C(F)(F)F)CC3)NC2=O)c1 (stereo not shown) [Example I-1-a-2] |  | 245 |  |
| Cc1cc(C)c(C2=C(OC(=O)C(C)C)C3(CCC(C(F)(F)F)CC3)NC2=O)c(C)c1 (stereo not shown) [Example I-1-b-1] | 95 |  | Kill rate in % after 7 d [2]: 100% |
| Cc1cc(C)c(C2=C(O)C3(CCC(C(F)(F)F)CC3)NC2=O)c(C)c1C (stereo not shown) [Example I-1-a-5] |  | > 250 | Kill rate in % after 6 d ([1]; 100 ppm active compound): 100% |
| Cc1cc(C)c(C2=C(O)C3(CCC(C(F)(F)F)CC3)OC2=O)c(C)c1C (stereo not shown) [Example I-2-a-3] |  | 159 to 161 |  |
| Cc1cc(C)c(C2=C(O)C3(CCC(C(F)(F)F)CC3)OC2=O)cc1C (stereo not shown) [Example I-2-a-2] | 100 | 212 to 214 |  |
| Cc1cc(Cl)c(C2=C(O)C3(CCC(C(F)(F)F)CC3)NC2=O)c(Cl)c1 (stereo not shown) [Example I-1-a-4] |  | > 250 |  |
| Cc1cc(C)c(C2=C(O)C3(CCC(C(F)(F)F)CC3)NC2=O)cc1C (stereo not shown) [Example I-1-a-3] | 80 | 175 |  |
| Cc1ccc(C)c(C2=C(O)C3(CCC(C(F)(F)F)CC3)OC2=O)c1 (stereo not shown) [Example I-2-a-1] |  |  | Kill rate in % after 7 d [3]: 90% |
| Cc1ccc(Br)c(C2=C(O)C3(CCC(C(F)(F)F)CC3)NC2=O)c1 (stereo not shown) [Example I-1-a-7] |  | 212 |  |
| Cc1cc(C)c(C2=C(O)C3(CCC(C(F)(F)F)CC3)NC2=O)c(C)c1 (stereo not shown) [Example I-1-a-1] |  |  | Kill rate in % at active compound concentrations in ppm [4]: 1.25 ppm = 100% |
